Results on two compounds are retold here after patent US20060148903A1, “Capsaicinoid gel formulation and uses thereof” (AlgoRx Pharmaceuticals, Inc., priority 2004, published 2006).

Values after ≈ are worked out from the molar mass of the structure shown.

Data set [1] is described as follows: physchem. Format: physicochemical. The note with it: for solubility at 7 days: 2 °C; for solubility at 7 days / solubility at 4 days: thermodynamic from solid; for solubility at 4 days: 25 °C; for Indicative solubility of capsaicin, Concentration mg/ml: 4 days. As to the method: The solubility of capsaicin was determined for the following vehicles by adding an excess of capsaicin and determining the saturation solubility by UV analysis of the supernatant.
Aliquots of 5 ml of each vehicle were dispensed into vials in duplicate and excess capsaicin added equivalent to 5 mg/ml. A small magnetic stirrer bar was introduced into vials containing the gel vehicle and mixed for approximately 5 minutes to disperse the capsaicin. All vials were sonicated for a total of 20 minutes maintaining the temperature below 25° C. The vials were stirred for a further hour.
One vial from each formulation was placed at 25° C./60% RH and one vial from each formulation was placed on a shaker at 2-8° C.
Vials were removed from 25° C./60% RH after storage for 4 days. Vials stored at 2-8° C. were removed from the shaker after storage for 4 days and returned to 2-8° C. to equilibrate further before being removed after storage for a total of 7 days.
A reference solution containing capsaicin 0.06 mg/ml in methanol was prepared. Samples were centrifuged for 20 minutes at 15000 rpm. The resultant supernatant from each vial was carefully transferred to fresh vials. The supernatant from each sample was diluted 1 in 50 with methanol and analyzed by UV at 280 nm using matched quartz cuvettes versus a methanol blank.

The nature of data set [2]: physchem. Format: physicochemical. The note with it: 25 °C, thermodynamic from solid. As to the method:
A known weight of capsaicin drug substance was weighed into a 4 ml Wheaton vial. A known volume of solvent was added and the sample placed in an ultrasonic bath for a minimum of 5 minutes. The temperature of the water bath was kept <25° C. at all times. Samples were transferred to a shaker bath at 25° C./60% RH and left for a minimum of 5 days. The samples were inspected and samples showing saturation (excess solid material remaining) removed for analysis. An additional known weight of capsaicin was added to the remaining samples and they were returned to the shaker bath. This was repeated until all samples had reached saturation.
Samples were filtered through a 0.45 μm PVDF Millipore Millex-HV hydrophilic disposable filter into a clean Wheaton vial. Sample absorbance was determined at 280 nm using 2 mm matched cuvettes. Samples were read against their equivalent solvent blank. Where necessary samples were diluted with methanol and these samples read against a methanol blank.
The concentration of each solution was determined by comparison with the absorbance of a capsaicin reference standard solution of known concentration.
Tween 80 results were very promising therefore the two materials were combined to investigate any possible synergistic effect on capsaicin solubility. […]

The conditions of data set [3]: fold more potent than capsaicin; cited from earlier work.
Setting [4] is: pH 5.5, aqueous with cosolvent or surfactant or cyclodextrin, Indicative solubility of capsaicin, Concentration mg/ml.
Setting [5] is: pH 7, aqueous with cosolvent or surfactant or cyclodextrin, Indicative solubility of capsaicin, Concentration mg/ml.

For `COc1cc(CNC(=O)CCCC/C=C/C(C)C)ccc1O` [Capsaicin, N-(4-hydroxy-3-methoxybenzyl)-8-methylnon-trans-6-enamide], the solubility at 7 days in the data set “physchem [1]” (setting [4]) came to 2200 µg/mL (≈ 7.2 mM); in the data set “physchem [1]” (setting [5]), 2000 µg/mL (≈ 6.55 mM). The solubility at 4 days was 2000 µg/mL (≈ 6.55 mM) in the data set “physchem [1]” (aqueous with cosolvent or surfactant or cyclodextrin, solubility of capsaicin gel formulations); 2200 µg/mL (≈ 7.2 mM) in the data set “physchem [1]” (setting [4]); 2100 µg/mL (≈ 6.88 mM) in the data set “physchem [1]” (setting [5]); around 2000 µg/mL (≈ 6.55 mM) in the data set “physchem [1]” (pH 7, aqueous with cosolvent or surfactant or cyclodextrin, capsaicin solubility in isotonic gel vehicles). Besides, the “Indicative solubility of capsaicin, Concentration mg/ml” value is 2.1 mg/mL in the data set “physchem [1]” (pH 5.5) and 1.9 mg/mL in “physchem [1]” (pH 7). Further, the “capsaicin concentration in gel formulations” value in “physchem [1]” (gel formulations stored at 2-8° C.) was 2 mg/mL. Further, the solubility in the data set “physchem [2]” (aqueous with cosolvent or surfactant or cyclodextrin, increase of capsaicin solubility for each 1% increase in Tween 80) was around 1000 µg/mL; in the data set “physchem [2]” (organic solvent or mixture, Capsaicin Solubility (mg/ml)), 160000 µg/mL.
For the compound `C=C(C)[C@]12C[C@@H](C)[C@@]34O[C@](Cc5ccccc5)(O[C@@H]1[C@@H]3C=C(COC(=O)Cc1ccc(O)c(OC)c1)C[C@]1(O)C(=O)C(C)=C[C@@H]41)O2` [Resiniferatoxin], in data set [3], the “potency relative to capsaicin” value is listed as 103-104 fold.
